Drawing on patent publication US9834571B2, “Compounds for inhibiting cell proliferation in EGFR-driven cancers” (ARIAD Pharmaceuticals, Inc., priority 2012, dated 2017), this text covers IC50 and GI50 for seven compounds.

Structures are written as SMILES. Like-named read-outs stand apart in the source and are kept apart here. Bounds are passed on as bounds.

Assay [1] has as its target EGFR L858R (Homo sapiens, UniProt P00533, L858R). Description: Kinase inhibitory activity against EGFR bearing the L858R mutation. Type of assay: biochemical. Particulars: 10 μM ATP, read-out: IC50 for kinase inhibition, EGFR L858R. Put shortly:
(§1)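 Singlicate 10 pt curves; top conc. 3 μM; ATP 10 μM.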

Assay [2] concerns the target human EGFR (native sequence) (Homo sapiens, UniProt P00533). The experiment in a line: Kinase inhibitory activity against human EGFR (native sequence). Type of assay: biochemical. The settings on record: 10 μM ATP, read-out: IC50 for kinase inhibition, EGFR. Put shortly:
as §1

In assay [3] the test system is BaF3 cells expressing wildtype EGFR. Description: Antiproliferative activity (MTT) against control BaF3 cells expressing wildtype EGFR. Particulars: Mus musculus. Type of assay: cell-based. In outline:
(§2)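 In this screen, MTT reduction reported on proliferation of BaF3 cells dependent on mutated EGFR and of matched BaF3 cells expressing wildtype receptor.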

Assay [4] addresses EGFR L858R/T790M (Homo sapiens, UniProt P00533, L858R/T790M). The experiment in a line: Kinase inhibitory activity against EGFR bearing the L858R/T790M double mutation. Particulars: 10 μM ATP, read-out: IC50 for kinase inhibition, EGFR L858R T790M. The assay is classed as biochemical. In outline: as §1
Assay [5] deals with T1, BaF3 cells expressing the target EGFR mutations (Homo sapiens, UniProt P00533, T790M, cells depend on it, form not given).
T1 construct: IC50, BAF3 EGFR DEL T790M PURO POOL; other: BAF3 EGFR DEL T790M PURO POOL cells, MTT; other: BAF3 EGFR DEL T790M PURO POOL cells; MTT
The experiment in a line: Antiproliferative activity (MTT) against BaF3 cells expressing the target EGFR mutations. Type of assay: cell-based. The settings on record: BAF3 EGFR DEL T790M PURO POOL cells, read-out: IC50, BAF3 EGFR DEL T790M PURO POOL. Put shortly: as §2

Assay [6] deals with T2, BaF3 cells expressing the target EGFR mutations (Homo sapiens, UniProt P00533, T790M/L858R, cells depend on it).
T2 construct: IC50, BAF3 EGFR L858R-T790M PURO POOL; other: BAF3 EGFR L858R-T790M PURO POOL cells, MTT; IC50, BAF3 EGFR L858R-T790M PURO POOL; other: BAF3 EGFR L858R-T790M PURO POOL cells; MTT
Described as above. The assay is classed as cell-based. The settings on record: BAF3 EGFR L858R-T790M PURO POOL cells, read-out: IC50, BAF3 EGFR L858R-T790M PURO POOL. Put shortly: as §2

The mark [7] stands for this setting: 10 pt curves, 3 μM top concentration.
The mark [8] stands for this setting: EGFR L858R/T790M double mutation.

EGFR L858R/T790M, sequence (P00533 25-1210 T790M/L858R): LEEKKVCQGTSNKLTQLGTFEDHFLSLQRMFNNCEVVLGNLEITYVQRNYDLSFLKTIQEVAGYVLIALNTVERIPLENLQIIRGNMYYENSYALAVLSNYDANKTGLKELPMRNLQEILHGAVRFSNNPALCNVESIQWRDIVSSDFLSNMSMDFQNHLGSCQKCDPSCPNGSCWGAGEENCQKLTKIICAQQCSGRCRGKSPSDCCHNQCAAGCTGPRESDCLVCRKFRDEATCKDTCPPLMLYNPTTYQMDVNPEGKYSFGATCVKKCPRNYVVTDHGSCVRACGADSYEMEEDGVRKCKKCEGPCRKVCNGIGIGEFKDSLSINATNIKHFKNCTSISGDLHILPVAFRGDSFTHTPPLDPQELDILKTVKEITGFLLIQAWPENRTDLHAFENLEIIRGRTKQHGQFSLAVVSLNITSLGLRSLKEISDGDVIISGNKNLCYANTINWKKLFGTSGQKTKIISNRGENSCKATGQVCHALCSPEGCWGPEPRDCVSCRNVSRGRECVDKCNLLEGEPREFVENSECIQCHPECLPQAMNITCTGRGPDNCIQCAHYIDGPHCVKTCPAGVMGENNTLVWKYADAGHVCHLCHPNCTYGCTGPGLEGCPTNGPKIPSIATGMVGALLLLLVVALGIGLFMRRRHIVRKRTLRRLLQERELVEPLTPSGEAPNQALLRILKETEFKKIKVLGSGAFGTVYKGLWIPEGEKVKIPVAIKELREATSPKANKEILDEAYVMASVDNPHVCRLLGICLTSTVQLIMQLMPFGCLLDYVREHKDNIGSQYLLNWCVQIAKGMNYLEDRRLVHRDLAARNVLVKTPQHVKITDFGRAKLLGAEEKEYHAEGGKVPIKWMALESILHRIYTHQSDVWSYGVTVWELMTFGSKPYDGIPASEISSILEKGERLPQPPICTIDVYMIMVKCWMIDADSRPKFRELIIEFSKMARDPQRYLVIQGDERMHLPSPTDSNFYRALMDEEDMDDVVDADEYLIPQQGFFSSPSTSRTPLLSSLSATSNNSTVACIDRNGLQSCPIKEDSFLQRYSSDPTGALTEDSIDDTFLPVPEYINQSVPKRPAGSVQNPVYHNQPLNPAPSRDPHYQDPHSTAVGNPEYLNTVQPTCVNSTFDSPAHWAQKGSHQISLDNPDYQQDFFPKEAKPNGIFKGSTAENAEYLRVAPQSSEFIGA
human EGFR (native sequence), sequence (P00533 25-1210): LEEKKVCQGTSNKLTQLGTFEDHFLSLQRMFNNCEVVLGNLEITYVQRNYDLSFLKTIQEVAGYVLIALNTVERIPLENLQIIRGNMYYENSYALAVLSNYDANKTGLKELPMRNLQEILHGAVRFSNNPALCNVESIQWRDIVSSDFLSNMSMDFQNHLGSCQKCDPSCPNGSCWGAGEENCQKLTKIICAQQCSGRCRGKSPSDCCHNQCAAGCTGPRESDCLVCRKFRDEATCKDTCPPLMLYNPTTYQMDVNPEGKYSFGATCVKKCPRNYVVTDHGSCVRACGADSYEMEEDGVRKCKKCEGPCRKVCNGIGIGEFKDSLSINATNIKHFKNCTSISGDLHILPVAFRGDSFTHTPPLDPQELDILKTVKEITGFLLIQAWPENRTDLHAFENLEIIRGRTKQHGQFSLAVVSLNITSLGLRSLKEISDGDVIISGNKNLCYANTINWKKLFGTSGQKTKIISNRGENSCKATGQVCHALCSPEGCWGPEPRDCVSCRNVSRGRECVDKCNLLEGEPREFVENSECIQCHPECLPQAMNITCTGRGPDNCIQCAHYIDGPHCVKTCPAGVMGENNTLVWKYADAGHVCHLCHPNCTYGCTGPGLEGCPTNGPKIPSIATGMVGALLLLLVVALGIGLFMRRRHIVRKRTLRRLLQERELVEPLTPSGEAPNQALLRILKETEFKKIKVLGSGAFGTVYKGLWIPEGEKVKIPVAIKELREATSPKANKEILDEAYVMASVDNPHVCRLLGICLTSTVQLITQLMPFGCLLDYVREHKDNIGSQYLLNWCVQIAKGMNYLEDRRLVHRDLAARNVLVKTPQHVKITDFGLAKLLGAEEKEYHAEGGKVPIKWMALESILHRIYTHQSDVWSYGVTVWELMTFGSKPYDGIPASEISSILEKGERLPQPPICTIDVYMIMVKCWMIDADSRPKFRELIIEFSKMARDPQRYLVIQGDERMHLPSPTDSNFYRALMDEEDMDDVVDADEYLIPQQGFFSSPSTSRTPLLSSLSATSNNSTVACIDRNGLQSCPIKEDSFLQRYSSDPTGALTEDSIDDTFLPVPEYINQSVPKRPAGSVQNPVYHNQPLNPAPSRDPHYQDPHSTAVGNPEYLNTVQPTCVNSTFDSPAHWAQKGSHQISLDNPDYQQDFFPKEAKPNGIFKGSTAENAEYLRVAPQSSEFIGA
EGFR L858R, sequence (P00533 25-1210 L858R): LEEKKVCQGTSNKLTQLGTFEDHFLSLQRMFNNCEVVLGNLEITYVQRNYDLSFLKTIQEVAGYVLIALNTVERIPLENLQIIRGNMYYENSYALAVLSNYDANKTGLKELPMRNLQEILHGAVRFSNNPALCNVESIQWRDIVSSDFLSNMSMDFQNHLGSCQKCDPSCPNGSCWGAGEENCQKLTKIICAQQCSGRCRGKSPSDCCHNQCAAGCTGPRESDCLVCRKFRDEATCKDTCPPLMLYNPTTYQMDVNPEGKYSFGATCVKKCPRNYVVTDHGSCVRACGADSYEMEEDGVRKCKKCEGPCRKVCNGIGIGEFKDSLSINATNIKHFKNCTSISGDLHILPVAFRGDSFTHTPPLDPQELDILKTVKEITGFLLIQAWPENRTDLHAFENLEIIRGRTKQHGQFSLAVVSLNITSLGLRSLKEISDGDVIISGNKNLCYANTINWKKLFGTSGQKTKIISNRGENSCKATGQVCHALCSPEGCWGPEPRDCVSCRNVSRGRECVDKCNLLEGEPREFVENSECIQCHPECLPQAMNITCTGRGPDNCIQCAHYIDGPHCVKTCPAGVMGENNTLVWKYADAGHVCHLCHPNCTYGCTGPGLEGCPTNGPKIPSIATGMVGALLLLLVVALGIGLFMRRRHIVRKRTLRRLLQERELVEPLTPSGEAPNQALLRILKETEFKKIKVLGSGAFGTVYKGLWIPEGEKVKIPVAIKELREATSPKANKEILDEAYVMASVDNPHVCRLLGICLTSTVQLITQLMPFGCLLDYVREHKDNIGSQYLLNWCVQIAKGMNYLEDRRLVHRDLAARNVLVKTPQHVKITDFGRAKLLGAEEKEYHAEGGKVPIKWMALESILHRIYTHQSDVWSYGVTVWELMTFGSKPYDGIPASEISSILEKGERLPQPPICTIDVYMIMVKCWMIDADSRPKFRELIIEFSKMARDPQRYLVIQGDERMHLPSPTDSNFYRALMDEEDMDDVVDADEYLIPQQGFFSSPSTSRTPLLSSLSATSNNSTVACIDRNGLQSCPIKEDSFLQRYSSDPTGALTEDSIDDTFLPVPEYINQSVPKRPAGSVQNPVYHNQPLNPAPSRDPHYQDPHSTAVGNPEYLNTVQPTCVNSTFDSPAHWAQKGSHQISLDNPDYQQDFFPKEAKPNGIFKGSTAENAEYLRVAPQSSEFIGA
T2 sequence (P00533 whole entry T790M/L858R): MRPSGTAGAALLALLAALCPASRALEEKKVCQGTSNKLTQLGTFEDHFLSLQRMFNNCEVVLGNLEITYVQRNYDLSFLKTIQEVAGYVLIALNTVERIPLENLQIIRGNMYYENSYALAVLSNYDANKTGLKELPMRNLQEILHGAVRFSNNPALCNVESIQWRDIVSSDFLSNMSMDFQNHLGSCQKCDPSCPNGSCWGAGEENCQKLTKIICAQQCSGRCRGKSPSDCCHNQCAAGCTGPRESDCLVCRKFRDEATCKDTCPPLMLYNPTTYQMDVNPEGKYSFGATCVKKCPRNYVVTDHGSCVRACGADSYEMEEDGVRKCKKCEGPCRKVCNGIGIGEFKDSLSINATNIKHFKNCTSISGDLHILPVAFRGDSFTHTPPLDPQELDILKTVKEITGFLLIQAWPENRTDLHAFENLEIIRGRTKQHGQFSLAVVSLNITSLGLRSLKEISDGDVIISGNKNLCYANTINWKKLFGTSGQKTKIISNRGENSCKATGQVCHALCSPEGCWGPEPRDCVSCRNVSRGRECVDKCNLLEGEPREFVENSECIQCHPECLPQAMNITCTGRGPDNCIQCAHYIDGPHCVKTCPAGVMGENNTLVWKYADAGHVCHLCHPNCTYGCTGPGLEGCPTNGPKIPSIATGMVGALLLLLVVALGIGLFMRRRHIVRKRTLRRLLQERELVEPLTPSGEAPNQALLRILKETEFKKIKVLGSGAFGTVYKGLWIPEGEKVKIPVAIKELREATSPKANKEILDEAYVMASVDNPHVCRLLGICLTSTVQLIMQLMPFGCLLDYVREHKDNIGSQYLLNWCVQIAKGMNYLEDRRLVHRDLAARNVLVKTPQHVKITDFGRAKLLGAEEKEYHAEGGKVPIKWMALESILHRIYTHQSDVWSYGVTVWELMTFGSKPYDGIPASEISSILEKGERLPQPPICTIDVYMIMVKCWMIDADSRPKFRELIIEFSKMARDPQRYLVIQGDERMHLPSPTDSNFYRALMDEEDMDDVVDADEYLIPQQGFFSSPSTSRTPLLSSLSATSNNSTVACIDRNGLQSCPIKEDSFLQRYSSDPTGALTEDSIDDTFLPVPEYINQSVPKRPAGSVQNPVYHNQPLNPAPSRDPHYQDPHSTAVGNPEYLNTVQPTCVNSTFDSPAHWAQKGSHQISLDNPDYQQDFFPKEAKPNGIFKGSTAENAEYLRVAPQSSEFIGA

As to `C=CC(=O)Nc1cc(Nc2ncc(Cl)c(Nc3ccccc3P(C)(C)=O)n2)c(OC)cc1C#CCCN(C)C` [Example 128, N-(5-((5-chloro-4-((2-(dimethylphosphoryl)phenyl)amino)pyrimidin-2-yl)amino)-2-(4-(dimethylamino)but-1-yn-1-yl)-4-methoxyphenyl)acrylamide], the IC50 is below 0.05 µM in assay [1] (setting [7]), below 0.05 µM in assay [2] (setting [7]), at least 0.25 µM in assay [3] (BAF3 parental cells) and below 0.05 µM in assay [4] (setting [7]). In addition, the GI50 in assay [5] and in assay [6] was below 0.05 µM in each case.

As to `COc1cc(C)c(NC(=O)CCl)cc1Nc1ncc(Cl)c(Nc2ccccc2P(C)(C)=O)n1` [Example 140, 2-chloro-N-(5-((5-chloro-4-((2-(dimethylphosphoryl)phenyl)amino)pyrimidin-2-yl)amino)-4-methoxy-2-methylphenyl)acetamide], the IC50 in assay [1] (setting [7]) is below 0.05 µM; in assay [2] (setting [7]), below 0.05 µM; in assay [3] (BAF3 parental cells) it was at least 0.25 µM; in assay [4] (setting [7]) it was below 0.05 µM. Further, the GI50 in assay [5] and in assay [6] was below 0.05 µM in each case.

Turning to `COc1ccc(NC(=O)CF)cc1Nc1ncc(Cl)c(Nc2ccccc2P(C)(C)=O)n1` [Example 147, N-(3-((5-chloro-4-((2-(dimethylphosphoryl)phenyl)amino)pyrimidin-2-yl)amino)-4-methoxyphenyl)-2-fluoroacetamide], the IC50 is 0.05 to 0.1 µM in assay [1] (setting [7]), at least 0.25 µM in assay [2] (setting [7]), at least 0.25 µM in assay [3] (BAF3 parental cells) and 0.101 to 0.25 µM in assay [4] (setting [7]). In addition, the GI50 in assay [5] and in assay [6] was at least 0.25 µM in each case.

`C=CC(=O)Nc1ccc(OC)c(Nc2ncc(Cl)c(Nc3ccc(OCCOC)cc3P(C)(C)=O)n2)c1` [Example 86, N-(3-((5-chloro-4-((2-(dimethylphosphoryl)-4-(2-methoxyethoxy)phenyl)amino)pyrimidin-2-yl)amino)-4-methoxyphenyl)acrylamide]: the IC50 in assay [1] (EGFR L858R) was below 0.05 µM; in assay [2] (human EGFR native sequence), 0.05 to 0.1 µM; in assay [3] (BAF3 PARENTAL cells (control)), at least 0.25 µM; in assay [4] (setting [8]) it was below 0.05 µM. Further, the GI50 was below 0.05 µM in assay [5] and 0.05 to 0.1 µM in assay [6].

Consider `COc1cc(N2CCOCC2)c(NC(=O)C#CCCN2CCN(C)CC2)cc1Nc1ncc(Cl)c(Nc2ccccc2P(C)(C)=O)n1` [Example 118, N-(5-((5-chloro-4-((2-(dimethylphosphoryl)phenyl)amino)pyrimidin-2-yl)amino)-4-methoxy-2-morpholinophenyl)-5-(4-methylpiperazin-1-yl)pent-2-ynamide], for which the IC50 is below 0.05 µM in assay [1] (setting [7]), below 0.05 µM in assay [2] (setting [7]), at least 0.25 µM in assay [3] (BAF3 parental cells) and below 0.05 µM in assay [4] (setting [7]). For the same compound, the GI50 in assay [5] and in assay [6] was below 0.05 µM throughout.

As to `C=C(C(=O)Nc1ccc(OC)c(Nc2ncc(Cl)c(Nc3ccccc3P(C)(C)=O)n2)c1)C(F)(F)F` [Example 82, N-(3-((5-chloro-4-((2-(dimethylphosphoryl)phenyl)amino)pyrimidin-2-yl)amino)-4-methoxyphenyl)-2-(trifluoromethyl)acrylamide], the IC50 in assay [1] (EGFR L858R) is below 0.05 µM; in assay [2] (human EGFR native sequence), below 0.05 µM; in assay [3] (BAF3 PARENTAL cells (control)), at least 0.25 µM; in assay [4] (setting [8]), below 0.05 µM. For the same compound, the GI50 in assay [5] and in assay [6] was at least 0.25 µM in each case.

Turning to `C=C(CN1CCC(N2CCN(C)CC2)CC1)C(=O)Nc1ccc(OC)c(Nc2ncc(Cl)c(Nc3ccccc3P(C)(C)=O)n2)c1` [Example 45, N-(3-((5-chloro-4-((2-(dimethylphosphoryl)phenyl)amino)pyrimidin-2-yl)amino)-4-methoxyphenyl)-2-((4-(4-methylpiperazin-1-yl)piperidin-1-yl)methyl)acrylamide], the IC50 is below 0.05 µM in assay [1] (EGFR L858R), below 0.05 µM in assay [2] (human EGFR native sequence), at least 0.25 µM in assay [3] (BAF3 PARENTAL cells (control)) and below 0.05 µM in assay [4] (setting [8]). Further, the GI50 in assay [5] and in assay [6] was below 0.05 µM in each case.
